Laboratory results from patent US20230093861A1, “RAPAMYCIN ANALOGS AS MTOR INHIBITORS” (Revolution Medicines, Inc., priority 2017, published 2023).
pIC50: −log10 of the molar value. Like-named read-outs stand apart in the source and are kept apart here.

Legend:
P-P70S6K (T389) = experiment: Cell based AlphaLISA assay, inhibition of P-P70S6K (T389) (mTORC1 substrate phosphorylation) in MDA-MB-468 cells; conditions: Homo sapiens, 4 h, two to four hours at 37° C.; for IC50: AlphaLISA, read-out: pIC50 for Inhibition of mTORC1 and mTORC2 Substrate Phosphorylation, P-P70S6K-(T389) (converted)
How it was run: (§1)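 AlphaLISA SureFire Ultra detection of phosphorylated substrate in lysed cells; duplicate Alpha reads; control-normalized IC50 fitting.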

P-Akt (S473) = experiment: Cell based AlphaLISA assay, inhibition of P-Akt (S473) (mTORC2 substrate phosphorylation) in MDA-MB-468 cells; conditions: Homo sapiens, two to four hours at 37° C.; for IC50: AlphaLISA, read-out: pIC50 for Inhibition of mTORC1 and mTORC2 Substrate Phosphorylation, p-AKT 1/2/3 -(S473) (converted)
How it was run: as §1

P-4E-BP1 (T37/46) = experiment: Cell based AlphaLISA assay, inhibition of P-4E-BP1 (T37/46) (mTORC1 substrate phosphorylation) in MDA-MB-468 cells; conditions: Homo sapiens, two to four hours at 37° C.; for IC50: AlphaLISA, read-out: pIC50 for Inhibition of mTORC1 and mTORC2 Substrate Phosphorylation, P-4E-BP1-(T37/46) (converted)
How it was run: as §1

## CO[C@H]1C[C@@H]2CC[C@@H](C)[C@@](O)(O2)C(=O)C(=O)N2CCCC[C@H]2C(=O)O[C@H]([C@H](C)C[C@@H]2CC[C@@H](OCCCCc3cn(CCOCCOCCOCCOCCOCCOCCC(=O)NCc4ccc(Cn5nc(-c6ccc7oc(N)nc7c6)c6c(N)ncnc65)cc4)nn3)[C@H](OC)C2)CC(=O)[C@H](C)/C=C(\C)[C@@H](O)[C@@H](OC)C(=O)[C@H](C)C[C@H](C)/C=C/C=C/C=C/1C [Example 86]
P-P70S6K (T389)
  IC50: < 1 nM
P-Akt (S473); MDA-MB-468, 4 h
  IC50: 3.16 to 31.6 nM
P-4E-BP1 (T37/46); MDA-MB-468, 4 h
  IC50: < 3.16 nM

## CO[C@H]1C[C@@H]2CC[C@@H](C)[C@@](O)(O2)C(=O)C(=O)N2CCCC[C@H]2C(=O)O[C@H]([C@H](C)C[C@@H]2CC[C@@H](OCCOCc3cn(CCOCCOCCOCCOCCOCCOCCC(=O)N4CC(Cn5nc(-c6ccc7oc(N)nc7c6)c6c(N)ncnc65)C4)nn3)[C@H](OC)C2)CC(=O)[C@H](C)/C=C(\C)[C@@H](O)[C@@H](OC)C(=O)[C@H](C)C[C@H](C)/C=C/C=C/C=C/1C [Example 57]
P-P70S6K (T389)
  IC50: < 1 nM
P-Akt (S473); MDA-MB-468, 4 h
  IC50: 3.16 to 31.6 nM
P-4E-BP1 (T37/46); MDA-MB-468, 4 h
  IC50: < 3.16 nM

## CO/N=C1/C[C@@H]([C@H](C)C[C@@H]2CC[C@H](n3cc(CCCC(=O)NCCOCCOCCOCCC(=O)NCCOCCOCCC(=O)NCCCCn4nc(-c5ccc6oc(N)nc6c5)c5c(N)ncnc54)nn3)[C@H](OC)C2)OC(=O)[C@@H]2CCCCN2C(=O)C(=O)[C@]2(O)O[C@@H](CC[C@H]2C)C[C@H](OC)/C(C)=C/C=C/C=C/[C@@H](C)C[C@@H](C)C(=O)[C@H](OC)[C@H](O)/C(C)=C/[C@H]1C [Example 169]
P-P70S6K (T389)
  IC50: 10 to 1000 nM
P-Akt (S473); MDA-MB-468, 4 h
  IC50: > 1000 nM
P-4E-BP1 (T37/46); MDA-MB-468, 4 h
  IC50: > 1000 nM

## COc1cccc2cc(-c3nc([C@H]4CC[C@H](C(=O)NCCOCCOCCNC(=O)CCOCCOCCOCCOCCn5cc(CCCCO[C@@H]6CC[C@@H](C[C@@H](C)[C@@H]7C[C@@H](OC)[C@H](C)/C=C(\C)[C@@H](O)[C@@H](OC)C(=O)[C@H](C)C[C@H](C)/C=C/C=C/C=C(\C)[C@@H](OC)C[C@@H]8CC[C@@H](C)[C@@](O)(O8)C(=O)C(=O)N8CCCC[C@H]8C(=O)O7)C[C@H]6OC)nn5)CC4)n4ncnc(N)c34)[nH]c12 [Example 188]
P-P70S6K (T389)
  IC50: < 1 nM
P-Akt (S473); MDA-MB-468, 4 h
  IC50: 31.6 to 1000 nM
P-4E-BP1 (T37/46); MDA-MB-468, 4 h
  IC50: < 3.16 nM

## CO[C@H]1C[C@@H]2CC[C@@H](C)[C@@](O)(O2)C(=O)C(=O)N2CCCC[C@H]2C(=O)O[C@H]([C@H](C)C[C@@H]2CC[C@@H](O)[C@H](OC)C2)C[C@@H](O)[C@H](C)/C=C(\C)[C@@H](O)[C@@H](OC)C(=NOCc2cn(-c3cnc(N4CCN(c5ncc(C(=O)NCCOCCOCCC(=O)NCCCCn6nc(-c7ccc8oc(N)nc8c7)c7c(N)ncnc76)cn5)CC4)nc3)nn2)[C@H](C)C[C@H](C)/C=C/C=C/C=C/1C [Example 192]
P-P70S6K (T389)
  IC50: < 1 nM
P-Akt (S473); MDA-MB-468, 4 h
  IC50: > 1000 nM
P-4E-BP1 (T37/46); MDA-MB-468, 4 h
  IC50: 3.16 to 31.6 nM

## CCO[C@@H]1C[C@@H]([C@H](C)C[C@@H]2CC[C@H](n3cc(COC(=O)NCCOCCOCCOCCC(=O)NCCOCCOCCC(=O)NCCCCn4nc(-c5cc6cc(O)ccc6[nH]5)c5c(N)ncnc54)nn3)[C@H](OC)C2)OC(=O)[C@@H]2CCCCN2C(=O)C(=O)[C@]2(O)O[C@@H](CC[C@H]2C)C[C@H](OC)/C(C)=C/C=C/C=C/[C@@H](C)C[C@@H](C)C(=O)[C@H](OC)[C@H](O)/C(C)=C/[C@H]1C [Example 148]
P-P70S6K (T389)
  IC50: 10 to 1000 nM
P-Akt (S473); MDA-MB-468, 4 h
  IC50: > 1000 nM
P-4E-BP1 (T37/46); MDA-MB-468, 4 h
  IC50: > 1000 nM

## CO[C@H]1C[C@@H]2CC[C@@H](C)[C@@](O)(O2)C(=O)C(=O)N2CCCC[C@H]2C(=O)O[C@H]([C@H](C)C[C@@H]2CC[C@@H](OCCCCc3cn(CCOCCOCCOCCOCCOCCOCCC(=O)NCCCCn4nc(-c5cc6cc(O)ccc6[nH]5)c5c(N)ncnc54)nn3)[C@H](OC)C2)CC(=O)[C@H](C)/C=C(\C)[C@@H](O)[C@@H](OC)C(=O)[C@H](C)C[C@H](C)/C=C/C=C/C=C/1C [Example 43]
P-P70S6K (T389)
  IC50: < 1 nM
P-Akt (S473); 4 h
  IC50: 31.6 to 1000 nM
P-4E-BP1 (T37/46); 4 h
  IC50: 31.6 to 1000 nM

## CC(C)n1nc(-c2ccc3oc(N)nc3c2)c2c(N)ncnc21 [MLN-128, reference compound]
P-P70S6K (T389); AlphaLisa SureFire Ultra, read-out: IC50 for Inhibition of mTORC1 and mTORC2 Substrate Phosphorylation, p-P70S6K-(T389)
  pIC50: 8.85
P-Akt (S473); MDA-MB-468, 4 h, AlphaLisa SureFire Ultra, read-out: IC50 for Inhibition of mTORC1 and mTORC2 Substrate Phosphorylation, p-AKT1/2/3-(S473)
  pIC50: 8.43
P-4E-BP1 (T37/46); MDA-MB-468, 4 h, AlphaLisa SureFire Ultra, read-out: IC50 for Inhibition of mTORC1 and mTORC2 Substrate Phosphorylation, p-4E-BP1-(T37/46)
  pIC50: 7.80

## CO[C@H]1C[C@@H]2CC[C@@H](C)[C@@](O)(O2)C(=O)C(=O)N2CCCC[C@H]2C(=O)O[C@H]([C@H](C)C[C@@H]2CC[C@@H](O)[C@H](OC)C2)C[C@@H](O)[C@H](C)/C=C(\C)[C@@H](O)[C@@H](OC)C(=NOCc2cn(CCOCCOCCOCCOCCOCCOCCC(=O)NCCCCn3nc(-c4cc5cc(O)ccc5[nH]4)c4c(N)ncnc43)nn2)[C@H](C)C[C@H](C)/C=C/C=C/C=C/1C [Example 93]
P-P70S6K (T389)
  IC50: 1 to 10 nM
P-Akt (S473); MDA-MB-468, 4 h
  IC50: > 1000 nM
P-4E-BP1 (T37/46); MDA-MB-468, 4 h
  IC50: 3.16 to 31.6 nM

## CO[C@H]1C[C@@H]2CC[C@@H](C)[C@@](O)(O2)C(=O)C(=O)N2CCCC[C@H]2C(=O)O[C@H]([C@H](C)C[C@@H]2CC[C@@H](OCc3cccc(-c4cnc(N5CCN(S(=O)(=O)CCc6cn(CCOCCOCCOCCOCCC(=O)NCCCCn7nc(-c8ccc9oc(N)nc9c8)c8c(N)ncnc87)nn6)CC5)nc4)c3)[C@H](OC)C2)CC(=O)[C@H](C)/C=C(\C)[C@@H](O)[C@@H](OC)C(=O)[C@H](C)C[C@H](C)/C=C/C=C/C=C/1C [Example 26]
P-P70S6K (T389)
  IC50: < 1 nM
P-Akt (S473); MDA-MB-468, 4 h
  IC50: 3.16 to 31.6 nM
P-4E-BP1 (T37/46); MDA-MB-468, 4 h
  IC50: < 3.16 nM

## CO[C@H]1C[C@@H]2CC[C@@H](C)[C@@](O)(O2)C(=O)C(=O)N2CCCC[C@H]2C(=O)O[C@H]([C@H](C)C[C@@H]2CC[C@@H](O)[C@H](OC)C2)C[C@@H](O)[C@H](C)/C=C(\C)[C@@H](O)[C@@H](OC)C(=NOCc2cn(CCOCCOCCOCCOCCOCCOCCOCCOCCC(=O)N3CCc4cc(Cn5nc(-c6ccc7oc(N)nc7c6)c6c(N)ncnc65)ccc4C3)nn2)[C@H](C)C[C@H](C)/C=C/C=C/C=C/1C [Example 87]
P-P70S6K (T389)
  IC50: < 1 nM
P-Akt (S473); MDA-MB-468, 4 h
  IC50: > 1000 nM
P-4E-BP1 (T37/46); MDA-MB-468, 4 h
  IC50: 3.16 to 31.6 nM

## CO[C@H]1C[C@@H]2CC[C@@H](C)[C@@](O)(O2)C(=O)C(=O)N2CCCC[C@H]2C(=O)O[C@H]([C@H](C)C[C@@H]2CC[C@@H](OCCCCc3cn(CCOCCOCCOCCOCCOCCOCCC(=O)N4CCN(c5ccc(-n6c(=O)ccc7cnc8ccc(-c9cnc%10ccccc%10c9)cc8c76)cc5C(F)(F)F)CC4)nn3)[C@H](OC)C2)CC(=O)[C@H](C)/C=C(\C)[C@@H](O)[C@@H](OC)C(=O)[C@H](C)C[C@H](C)/C=C/C=C/C=C/1C [Example 67]
P-P70S6K (T389)
  IC50: < 1 nM
P-Akt (S473); MDA-MB-468, 4 h
  IC50: < 3.16 nM
P-4E-BP1 (T37/46); MDA-MB-468, 4 h
  IC50: < 3.16 nM

## CO[C@H]1C[C@@H]2CC[C@@H](C)[C@@](O)(O2)C(=O)C(=O)N2CCCC[C@H]2C(=O)O[C@H]([C@H](C)C[C@@H]2CC[C@@H](OCCCCc3cn(CCOCCOCCOCCC(=O)NCCOCCOCCOCCC(=O)NCCCCn4nc(-c5cc6cc(O)ccc6[nH]5)c5c(N)ncnc54)nn3)[C@H](OC)C2)CC(=O)[C@H](C)/C=C(\C)[C@@H](O)[C@@H](OC)C(=O)[C@H](C)C[C@H](C)/C=C/C=C/C=C/1C [Example 199]
P-P70S6K (T389)
  IC50: < 1 nM
P-Akt (S473); MDA-MB-468, 4 h
  IC50: 31.6 to 1000 nM
P-4E-BP1 (T37/46); MDA-MB-468, 4 h
  IC50: < 3.16 nM

## CO[C@H]1C[C@@H]2CC[C@@H](C)[C@@](O)(O2)C(=O)C(=O)N2CCCC[C@H]2C(=O)O[C@H]([C@H](C)C[C@@H]2CC[C@@H](OCCCCc3cn(CCOCCOCCOCCOCCOCCOCCC(=O)N4CCc5cc(Cn6nc(-c7ccc8oc(N)nc8c7)c7c(N)ncnc76)ccc5C4)nn3)[C@H](OC)C2)CC(=O)[C@H](C)/C=C(\C)[C@@H](O)[C@@H](OC)C(=O)[C@H](C)C[C@H](C)/C=C/C=C/C=C/1C [Example 89]
P-P70S6K (T389)
  IC50: < 1 nM
P-Akt (S473); MDA-MB-468, 4 h
  IC50: 3.16 to 31.6 nM
P-4E-BP1 (T37/46); MDA-MB-468, 4 h
  IC50: < 3.16 nM
